# Active and inactive are the calls of the source. The rule behind the calls is not given here.
# Test system: M. tuberculosis growth, meropenem IC50 shift with compound
# Experiment: confirmation, meropenem IC50 shift (AID 485340);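 note: growth read after one week of culture plus overnight Alamar Blue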
# [1] = compound alone IC50 vs Mtb, compound dose (near its own IC50) 1.18 µM
# [2] = compound dose (near its own IC50) 1.18 µM
# [3] = compound alone IC50 vs Mtb, compound dose (near its own IC50) 2.35 µM
# [4] = compound dose (near its own IC50) 2.35 µM
# [5] = compound alone IC50 vs Mtb, compound dose (near its own IC50) 4.69 µM
# [6] = compound dose (near its own IC50) 4.69 µM
# [7] = compound alone IC50 vs Mtb, compound dose (near its own IC50) 9.38 µM
# [8] = compound dose (near its own IC50) 9.38 µM
smiles,measurement,setting,value
CCc1ccc2nc(/N=C(\N)NC(=O)c3ccccc3)nc(C)c2c1,IC50,[1],1.02 µM
same,IC50,[2],4.22 µM (inactive)
CC(C)=CCC/C(C)=C/C=N/NC(=O)c1ccc([N+](=O)[O-])cc1,IC50,[1],1.02 µM
same,IC50,[2],3.4 µM (inactive)
NC(=S)N/N=C/c1ccc2ccccc2c1,IC50,[3],2.02 µM
same,IC50,[4],1.95 µM (inactive)
C[C@H](NC(=O)c1[nH]cnc1C(=O)Nc1cccc(Cl)c1)c1ccccc1,IC50,[5],3.59 µM
same,IC50,[6],< 0.52 µM
C/C(=N\NC(=O)c1cc2c(s1)CCC(C)C2)c1ccc[nH]1 (centres undefined),IC50,[5],6.51 µM
same,IC50,[6],1.98 µM (inactive)
Nc1c2c(nc3sc4c(c13)CCCC4)-c1ccccc1CC2,IC50,[5],6.11 µM
same,IC50,[6],6.03 µM (inactive)
COc1ccc(/C=C/C(=O)N(C(C)C)C(C)C)cc1Br,IC50,[5],5.89 µM
same,IC50,[6],4.03 µM (inactive)
CC(C)CCN1CC(O)=C(c2nc3ccccc3[nH]2)C1=N,IC50,[5],6.68 µM
same,IC50,[6],4.06 µM (inactive)
CC(=O)Nc1cccc(/C(C)=N/NC(N)=S)c1,IC50,[7],7.9 µM
same,IC50,[8],2.08 µM (inactive)
CCOC(=O)c1c(C)n(-c2ccccc2)c2ccc(OCCN(C)C)cc12,IC50,[5],5.45 µM
same,IC50,[6],4.08 µM (inactive)
CC(=O)c1c(C)[nH]c(C(=O)OCC(=O)Nc2nnc(-c3ccccc3)o2)c1C,IC50,[5],4.19 µM
same,IC50,[6],7.02 µM (inactive)
Cc1cc(C)cc(NC(=O)c2cc(Cl)sc2Cl)c1,IC50,[5],4.84 µM
same,IC50,[6],1.88 µM (inactive)
O=c1oc(-c2ccccc2F)nc2scc(-c3ccccc3)c12,IC50,[3],2.19 µM
same,IC50,[4],5.8 µM (inactive)
O=C(COC(=O)C1CC1)c1c[nH]c2ccccc12,IC50,[1],0.999 µM
same,IC50,[2],4.65 µM (inactive)
O=c1c(O)c(-c2ccc3c(c2)OCO3)oc2ccccc12,IC50,[3],2.12 µM
same,IC50,[4],7.4 µM (inactive)
O=C(COC(=O)C1=COCCO1)Nc1ccc2c(c1)OCO2,IC50,[5],3.86 µM
same,IC50,[6],4.01 µM (inactive)
CCOC(=O)Cn1c(=NC(=O)C2CC2)sc2c(C)cc(C)cc21,IC50,[7],9.84 µM
same,IC50,[8],3.54 µM (inactive)
COC(=O)c1c(-c2ccc(OC)cc2)oc2ccc(-c3cc(OC)c(OC)c(OC)c3)cc12,IC50,[7],7.72 µM
same,IC50,[8],6.1 µM (inactive)
COc1cccc(/C=N/NC(=O)c2cnccn2)c1O,IC50,[3],2.58 µM
same,IC50,[4],3.28 µM (inactive)
COc1ccc2oc(C(=O)Nc3nc4ccccc4[nH]3)c(C)c2c1,IC50,[3],1.7 µM
same,IC50,[4],3.58 µM (inactive)
Cc1c(OCc2ccc(C(=O)O)cc2)ccc2c(-c3ccccc3)cc(=O)oc12,IC50,[3],1.42 µM
same,IC50,[4],2.62 µM (inactive)
CCOc1ccc2nc(NC(=O)c3cnccn3)sc2c1,IC50,[5],4.07 µM
same,IC50,[6],4.08 µM (inactive)

# Reference: PubChem BioAssay AID485340 (Southern Research Specialized Biocontainment Screening …, 2010)
